Experimental data: US11638716B2, “Compounds, compositions, and methods for the treatment of disease” (F-star Therapeutics, Inc., priority 2017, dated 2023)

Key:
[1] = test system: CT26 murine colon carcinoma; test: CT26 murine colon carcinoma model in female BALB/c mice; type: in vivo, mouse
Experimental: Example 4: Study to Determine the Efficacy of Compound 4 in a CT26 Murine Colon Carcinoma Model Using Female BALB/c Mice
The animals were fed ad libitum water (reverse osmosis, 1 ppm Cl) and a NIH 31 Modified and Irradiated Lab Diet consisting of 18.0% crude protein, 5.0% crude fat, and 5.0% crude fiber.
CT26 murine colon carcinoma cells were grown in RPMI-1640 medium containing 10% fetal bovine serum, 2 mM glutamine, 100 units/mL penicillin G sodium, 100 μg/mL streptomycin sulfate, and 25 μg/mL gentamicin. The cells were cultured in tissue culture flasks in a humidified incubator at 37° C., in an atmosphere of 5% CO2 and 95% air.
On the day of implantation, cultured CT26 cells were harvested during log phase growth and resuspended in phosphate buffered saline, pH 7.4 (PBS) at a concentration of 3×10^6 cells/mL. Each mouse was injected subcutaneously in the right flank with 3×10^5 tumor cells (0.1 mL cell suspension) and tumors were monitored as their volumes approached the target range of 80 to 120 mm^3. Eleven days after tumor cell implantation, on Day 1 of the study, animals were sorted into three groups (n=8/group) with individual tumor volumes of 63 to 126 mm^3, and a group mean tumor volume of 105 mm^3. Tumors were measured with a caliper twice weekly for the duration of the study. Tumor size was calculated using the formula:
[formula] wherein w is width and 1 is length, in mm, of a tumor. Tumor weight may be estimated with the assumption that 1 mg is equivalent to 1 mm^3 of tumor volume. Test Articles
Compound 4 was dissolved by adding the appropriate volume of sterile saline (vehicle) into each tube, vortexing, incubating at 37° C. for 2-5 minutes, followed by sonication, if needed. […] A fresh vial was prepared on each day of dosing.
On Day 1 of the study, three groups of BALB/c mice (n=8) began dosing according to the protocol in FIG. 20. Compound 4 and vehicle were administered intravenously (i.v.). Group 1 received vehicle on Days 1, 5, 9, and 14. Groups 2 and 3 received CMD 4 at 1 and 3 mg/kg, respectively, on Days 1, 5, 9, and 14.
The study endpoint was a tumor volume of 2000 mm^3 or Day 30, whichever came first. The study ended on Day 29. The study protocol specified a tumor growth delay assay based on the median time-to-endpoint (TTE) in a treated group versus the control group. Tumors were measured using calipers twice per week, and each animal was euthanized for tumor progression (TP) when its tumor reached the 2000 mm^3 volume endpoint. The TTE for each mouse was calculated with the following equation:
[formula] where b is the intercept and m is the slope of the line obtained by linear regression of a log-transformed tumor growth data set. The data set is comprised of the first observation that exceeded the study endpoint volume and the three consecutive observations that immediately preceded the attainment of the endpoint volume. […] In instances in which the log-transformed calculated TTE preceded the day prior to reaching endpoint or exceeded the day of reaching tumor volume endpoint, a linear interpolation was performed to approximate TTE.
On Day 29, MTV (n) was defined as the median tumor volume of the number of animals, n, that survived to the last day and whose tumors had not reached the volume endpoint. Any animal determined to have died from treatment-related (TR) causes was to be assigned a TTE value equal to the day of death. Any animal that died from non-treatment-related (NTR) causes was to be excluded from the analysis. Treatment outcome was evaluated from tumor growth delay (TGD), which was defined as the increase in the median TTE for a treatment group compared to the control group: TGD=T−C expressed in days, or as a percentage of the median TTE of the control group:
[formula] wherein T is the median TTE for a treatment group and C is the median TTE for the control group. Tumor Growth Inhibition (TGI) Analysis […]

IRF = test: In vitro induction of IRF in THP1 dual cells (Lucia reporter, ISG54 promoter); type: cell-based
Experimental: Example 2. In Vitro Induction of IRF and NF-κβ in THP1 Cells
THP1 dual cells grown in complete media were treated with various concentrations of a compound of the present disclosure or DMSO control. Dual cells carry both secreted embryonic alkaline phosphatase (SEAP) reporter gene under the control of an IFN-β minimal promoter fused to five copies of the NF-kB consensus transcriptional response element to measure NF-kB activity and Lucia reporter gene under the control of an ISG54 minimal promoter to measure IRF activity. After 20 h incubation, IRF activity was assessed using QUANTI-luc to measure levels of Lucia and NF-kB activity was determined by measure SEAP levels at 620-655 nm. % induction was calculated from fold change in luminescence/absorbance compared to DMSO treated sample. […] EC50 values were generated by curve fit in Xlfit.
Cells grown in complete media were treated with various concentrations of a compound of the disclosure or DMSO control. Dual cells carry both secreted embryonic alkaline phosphatase (SEAP) reporter gene under the control of an IFN-β minimal promoter fused to five copies of the NF-kB consensus transcriptional response element to measure NF-kB activity and Lucia reporter gene under the control of an ISG54 minimal promoter to measure IRF activity. After 20 h incubation, IRF activity was assessed using QUANTI-luc to measure levels of Lucia and NF-kB activity was determined by measure SEAP levels at 620-655 nm. % induction was calculated from fold change in luminescence/absorbance compared to DMSO treated sample. EC50 values are generated by curve fit in Xlfit.

wild type STING = target: T1, wild type STING (Homo sapiens, UniProt Q86WV6, H232R); test: IRF/NF-kB reporter cells, wild type STING; type: cell-based; details: 20 hours
T1 construct: expressed in transfected cells; host or cells: THP1-Dual-KI-STING-R232 (made from THP-Dual-STING KO cells)
T1 sequence (Q86WV6 whole entry H232R): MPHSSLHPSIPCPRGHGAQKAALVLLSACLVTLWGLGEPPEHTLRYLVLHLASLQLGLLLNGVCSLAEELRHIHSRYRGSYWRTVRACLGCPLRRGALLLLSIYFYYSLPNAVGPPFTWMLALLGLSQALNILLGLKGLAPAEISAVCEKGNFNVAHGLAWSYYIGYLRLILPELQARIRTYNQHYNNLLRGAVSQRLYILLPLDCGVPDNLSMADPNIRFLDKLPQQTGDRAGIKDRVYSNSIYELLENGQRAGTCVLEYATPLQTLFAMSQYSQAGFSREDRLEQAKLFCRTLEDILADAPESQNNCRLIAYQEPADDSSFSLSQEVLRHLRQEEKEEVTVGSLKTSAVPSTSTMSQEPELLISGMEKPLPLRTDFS
Experimental: (§1) FIG. 22 depicts cells stably expressing both or either one of the reporters to measure IRF and NF-kB activity were treated with a range of concentrations of compound 2 or DMSO control for 20 hours. IRF activity was assessed using QUANTI-luc to measure levels of Lucia and NF-kB activity was determined by measure SEAP levels at 620-655 nm. % induction was calculated from fold change in luminescence/absorbance compared to DMSO treated sample. EC50 values are generated by curve fit in Xlfit.
as §1, with “FIG. 24” for “FIG. 22”, “compound 3” for “compound 2”
as §1, with “FIG. 27” for “FIG. 22”, “compound 4” for “compound 2”
Cells grown in complete media were treated with various concentrations of a compound of the disclosure or DMSO control. […] After 20 h incubation, IRF activity was assessed using QUANTI-luc to measure levels of Lucia and NF-kB activity was determined by measure SEAP levels at 620-655 nm. % induction was calculated from fold change in luminescence/absorbance compared to DMSO treated sample. […]

N.N.Nc1ncnc2c1ncn2[C@@H]1O[C@@H]2COP(=O)(S)O[C@@H]3[C@H](F)[C@@H](COP(=O)(O)O[C@H]2[C@H]1F)O[C@H]3n1ccc(=O)[nH]c1=O (some centres unmarked) [Compound 3]
tumor growth compared to the vehicle ([1]; intravenously at 3 mg/kg): Tumor growth was slowed | EC50 (IRF; Homo sapiens, THP-1, 20 h incubation): < 50 nM | activity against wild type STING (wild type STING): possess activity

CCCCCCCCCCOc1ccc(C(=O)Oc2ccc(CSP3(=O)OC[C@H]4O[C@@H](n5cnc6c(N)ncnc65)[C@H](F)[C@@H]4OP(=O)(O)OC[C@H]4O[C@@H](n5ccc(=O)[nH]c5=O)[C@H](O3)[C@@H]4F)cc2)cc1 (some centres unmarked) [Compound 4]
tumor growth compared to the vehicle ([1]; intravenously at 1 mg/kg and 3 mg/kg): Tumor growth was slowed | individual times to endpoint vs vehicle group ([1]; treatment groups 1 and 3 mg/kg i.v.): took longer to reach the endpoint | tumor growth inhibition compared to the vehicle group ([1]; treatment groups 1 and 3 mg/kg i.v., Days 1, 5, 9, 14, TGI on Day 18): at least 89% | time to reach the endpoint, longer than vehicle group ([1]; treatment groups 1 and 3 mg/kg i.v., Days 1, 5, 9, 14, endpoint tumor volume 2000 mm^3): at least 10 days | tumor volume distribution on day 18 vs vehicle group ([1]; treatment groups 1 and 3 mg/kg i.v., day 18): significantly smaller tumor volumes | percent of mice remaining (Kaplan-Meier) vs vehicle group ([1]; treatment groups 1 and 3 mg/kg i.v., day 21): greater percent of mice remaining | EC50 (IRF; 20 h incubation): < 50 nM | activity against wild type STING (wild type STING): possess activity
